ChEMBL document CHEMBL1201862, “PubChem BioAssay data set” (2004)
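A five-concentration, 48-hour dose response in 96-well plates underlies each endpoint, interpolated linearly between surrounding concentrations. Here, GI50 denotes the concentration required for 50% inhibition of growth.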 Calls of active or inactive are those of the source. Cut-off read from the data, not from the text of the source: active = GI50 up to about 1.1 µM and inactive = higher.

Experiments:
Assay in all cases: DTP human tumour cell line panel, 48 h
DMS-114 = tested on: DMS-114
DMS-273 = tested on: DMS-273
HOP-18 = tested on: HOP-18
KM-20L2 = tested on: KM-20L2
LXFL 529 = tested on: LXFL 529
M19-MEL = tested on: M19-MEL
SNB-78 = tested on: SNB-78
XF498 = tested on: XF498
RXF 631 = tested on: RXF 631

SMILES	GI50 (DMS-114)	GI50 (DMS-273)	GI50 (HOP-18)	GI50 (KM-20L2)	GI50 (LXFL 529)	GI50 (M19-MEL)	GI50 (SNB-78)	GI50 (XF498)	GI50 (RXF 631)
Oc1ccc(-c2n[nH]c(S)n2)cc1	> 100 µM (inactive)	> 100 µM (inactive)	> 100 µM (inactive)	> 100 µM (inactive)	> 100 µM (inactive)	> 100 µM (inactive)	> 100 µM (inactive)	> 100 µM (inactive)	
COC(=O)C(C(=O)C(=O)Nc1ccc(C)cc1C)c1nc2ccc([N+](=O)[O-])cc2nc1O (stereo not drawn)	33.4 µM (inactive)	97.7 µM (inactive)	> 100 µM (inactive)	> 100 µM (inactive)	56.8 µM (inactive)	> 100 µM (inactive)	> 100 µM (inactive)	> 100 µM (inactive)	> 100 µM (inactive)
CC(=O)OCC1OC(n2c(=O)[nH]c(=O)c3nn[nH]c32)C(OC(C)=O)C(OC(C)=O)C1OC(C)=O (stereo not drawn)	> 100 µM (inactive)	> 100 µM (inactive)	76.7 µM (inactive)	> 100 µM (inactive)	> 100 µM (inactive)	> 100 µM (inactive)		> 100 µM (inactive)	
Cc1ccc(/C=C(\NC(=O)c2ccccc2)c2nc3ccccc3[nH]2)cc1	27.6 µM (inactive)		> 100 µM (inactive)	47.1 µM (inactive)	32.2 µM (inactive)	46.5 µM (inactive)			
O=C(O)C12C3CCC(C3)C1(C(=O)O)C1CCC2C1 (stereo not drawn)	33.9 µM (inactive)	> 100 µM (inactive)	> 100 µM (inactive)	> 100 µM (inactive)	> 100 µM (inactive)	92.5 µM (inactive)	> 100 µM (inactive)	> 100 µM (inactive)	> 100 µM (inactive)
CCOP(=O)(OCC)/C(C#N)=C\c1cccc2ccccc12				> 100 µM (inactive)		> 100 µM (inactive)	48.2 µM (inactive)		
O=C1C(Br)=C(Br)C(=O)c2ccc(=O)ccc21	20.4 µM (inactive)	48 µM (inactive)	24.2 µM (inactive)	> 100 µM (inactive)	17.7 µM (inactive)	17.2 µM (inactive)	29.3 µM (inactive)	24 µM (inactive)	18.7 µM (inactive)
c1ccc2c(c1)nnn2CNc1ccc(N2CCCCC2)cc1	> 100 µM (inactive)	> 100 µM (inactive)	> 100 µM (inactive)	> 100 µM (inactive)	> 100 µM (inactive)		> 100 µM (inactive)	> 100 µM (inactive)	
COC(=O)c1cc2c3c(ccc2[nH]1)N(C(=O)c1cc2c4c(ccc2[nH]1)N(C(=O)c1cc2c5c(ccc2[nH]1)N(C(N)=O)CC5)CC4)CC3	3.7 µM (inactive)	4.06 µM (inactive)	> 100 µM (inactive)	> 63.8 µM (inactive)	2.07 µM (inactive)		> 100 µM (inactive)		
Cc1ccc(C(=O)C(C)N)cc1 (stereo not drawn)	> 100 µM (inactive)	> 100 µM (inactive)	> 100 µM (inactive)	> 100 µM (inactive)	> 100 µM (inactive)		> 100 µM (inactive)	> 100 µM (inactive)	
Cc1nc(N)nc(N)c1CCCCc1ccc(N)cc1				3.74 µM (inactive)	6.46 µM (inactive)	8.55 µM (inactive)	9.46 µM (inactive)	11.4 µM (inactive)	
O=C(c1ccco1)N(C(=S)N1CCN(c2ccccc2)CC1)c1ccccc1	> 100 µM (inactive)	> 100 µM (inactive)	> 100 µM (inactive)	> 100 µM (inactive)	> 100 µM (inactive)	> 100 µM (inactive)	> 100 µM (inactive)		
COc1cc(C2(C)SCCCS2)cc(OC)c1OC	> 100 µM (inactive)	> 100 µM (inactive)	> 100 µM (inactive)	> 100 µM (inactive)	> 100 µM (inactive)	> 100 µM (inactive)			> 100 µM (inactive)
Cc1cc(N(CCC#N)CCC#N)ccc1/C=C1\N=C(c2cc([N+](=O)[O-])ccc2Cl)N(NC(=O)c2ccc(/N=C\c3ccc(N(CCC#N)S(C)(=O)=O)cc3C)cc2)C1=O	85.5 µM (inactive)	41.5 µM (inactive)	> 100 µM (inactive)	58.2 µM (inactive)	64.3 µM (inactive)	73.1 µM (inactive)	> 100 µM (inactive)	> 100 µM (inactive)	> 100 µM (inactive)
O=C1C2c3[nH]c4ccccc4c3[C@@H]3CCCCC3C2C(=O)N1c1ccccc1 (stereo partly drawn)	22.1 µM (inactive)	17.3 µM (inactive)			17.6 µM (inactive)	19.1 µM (inactive)	19.3 µM (inactive)		14.8 µM (inactive)
O=C(/C=C/c1ccc(OCCSCCCCCCCCCCSCCOc2ccc(/C=C/C(=O)c3ccc(Cl)cc3)cc2)cc1)c1ccc(Cl)cc1	> 100 µM (inactive)	> 100 µM (inactive)	> 100 µM (inactive)	> 100 µM (inactive)	> 100 µM (inactive)	> 100 µM (inactive)	37.2 µM (inactive)		> 66.1 µM (inactive)
ClC(/N=N/c1ccccc1)=N/Nc1ccccc1		26.6 µM (inactive)	20.8 µM (inactive)	51.1 µM (inactive)	28.5 µM (inactive)	> 100 µM (inactive)	> 100 µM (inactive)	40.4 µM (inactive)	> 100 µM (inactive)
Cc1cccc(N2C(=O)/C(=C/c3ccc(N(CCC#N)CCC#N)cc3C)N=C2c2cc([N+](=O)[O-])ccc2Cl)c1	88.9 µM (inactive)	> 100 µM (inactive)	> 100 µM (inactive)		> 100 µM (inactive)	> 100 µM (inactive)			> 100 µM (inactive)
CC1(C)O/C(=C\c2ccccc2)C(=O)/C(=C/c2ccccc2)O1	17.3 µM (inactive)	42.6 µM (inactive)	> 100 µM (inactive)		20.4 µM (inactive)	28.6 µM (inactive)	38.5 µM (inactive)	18.5 µM (inactive)	33.8 µM (inactive)
COC(=O)C1CC(C(=O)OC)c2nc3cc(C)ccc3nc21 (stereo not drawn)	> 100 µM (inactive)	> 100 µM (inactive)	51.4 µM (inactive)	> 100 µM (inactive)	> 100 µM (inactive)	> 100 µM (inactive)	> 100 µM (inactive)	> 100 µM (inactive)	> 100 µM (inactive)
CN(C)NC(=O)/C(=C/c1ccc(Cl)cc1)NC(=O)c1ccccc1		29.4 µM (inactive)	> 100 µM (inactive)	> 100 µM (inactive)	> 100 µM (inactive)	> 100 µM (inactive)		> 100 µM (inactive)	55.3 µM (inactive)
NCCCC(N/C=C1/N=C(c2ccccc2)OC1=O)C(=O)O (stereo not drawn)	> 100 µM (inactive)	> 100 µM (inactive)		> 100 µM (inactive)	96.8 µM (inactive)	> 100 µM (inactive)	> 100 µM (inactive)	> 100 µM (inactive)	
CN1CC[C@]2(C)c3cc(O)ccc3CC3CCCC1C32C (stereo partly drawn)	> 100 µM (inactive)		26.6 µM (inactive)	> 100 µM (inactive)	> 100 µM (inactive)	> 100 µM (inactive)	> 100 µM (inactive)	> 100 µM (inactive)	> 100 µM (inactive)
COC(=O)C1=Cc2cc(OC)c(OC)cc2[C@H](c2ccc(OC)c(OC)c2)C1C(=O)OC (stereo partly drawn)	> 100 µM (inactive)	> 100 µM (inactive)		> 100 µM (inactive)	> 100 µM (inactive)	> 100 µM (inactive)	> 100 µM (inactive)	> 100 µM (inactive)	
Cc1ccc2[nH]c3c4c5ccccc5nc-4c[nH]c3c2c1	16.1 µM (inactive)		14.9 µM (inactive)	15.1 µM (inactive)	19.2 µM (inactive)		17 µM (inactive)	21.4 µM (inactive)	
CCOC(=O)C(=O)Nc1ccc([N+](=O)[O-])cc1C#N	> 100 µM (inactive)		> 100 µM (inactive)		> 100 µM (inactive)	> 100 µM (inactive)		> 100 µM (inactive)	> 100 µM (inactive)
Nc1nc(SCc2ccccc2[N+](=O)[O-])c2[nH]cnc2n1		> 100 µM (inactive)		> 100 µM (inactive)	> 100 µM (inactive)	> 100 µM (inactive)	> 100 µM (inactive)		
CCCOc1ccc(/C=C/c2cc(OC)c(OC)c(OC)c2)cc1	0.347 µM (active)	0.147 µM (active)	> 100 µM (inactive)	0.2 µM (active)	0.558 µM (active)	0.682 µM (active)	1.29 µM (inactive)	0.56 µM (active)	2.03 µM (inactive)
